In assay [1] the test system is K562 human myelogeneous leukaemia cell line. Briefly: Cytotoxicity/growth inhibition assay (MTT), K562. The assay is classed as cell-based. As to conditions: MTT, read-out: K562 IC50. The source says: In addition to the cell lines described in this paper, other established human cell lines (K562, HUVEC, H460, BE, H529, and HT29) were used in the cytotoxicity/growth inhibition assay. • (1) Inhibition of tubulin assembly. The figure quoted is the concentration required to reduce assembly of tubulin by 50%. Tubulin assembly is monitored by light scatter/absorption at 350 nm.
(§1) (2) Competition for the colchicine binding site on tubulin. The figure quoted represents the % of ^3H-colchicine bound following co-incubation of test compound and ^3H-cochicine with isolated tubulin. Where ester pro-drugs were used the experiments were carried out in the presence and absence of porcine liver esterase. • (3) Cytotoxicity/growth inhibition assay. This was carried out by the MTT assay. • (4) Permeability (shape-change) assay in endothelial cells. […] This involved the diffusion of a fluorescently labelled dextran through a barrier of endothelial cells (HUVEC) grown to confluence on a porous membrane. The effect of agents to alter the shape of these cells results in an increase in the permeability of the cells to the dye. The figure represents the increase in permeability over control cultures when drug is added (30 minutes, 1 mM.). • (5) Experiments to study the anti-vascular effects of these agents were carried out as described previously by our group. […] The anti-vascular effects of the agents were monitored by either positron emission tomography (PET) or by histologogical examination following treatment of mice bearing T50:80 murine breast tumours, or H460 human lung tumours. • (6) Anti-tumour efficacy of agents was determined in xenografts of H460 human lung cancer. Animals (n=5) were trated either with 5 daily injections and tumour size measured with time following treatment. • (7) The pharmacokinetic profile of agents was determined in mice following injection with drug. Blood was taken at various times following treatment and analysed by HPLC with UV detection. […] (AND(P)H:quinone oxidoreductace, EC 1.6.99.2). DT-diaphorase is an enzyme over-expressed in a number of human tumours. […] This two-electron reducing enzyme can be used to selectively activate prodrugs within cancers which over-express the enzyme.

Assay [2] has as its system P388 murine leukaemia cell line. Briefly: Cytotoxicity/growth inhibition assay (MTT), P388. The assay is classed as cell-based. The protocol:
as §1

In assay [3] the test system is tubulin. Briefly: CD IC50 (Tables 12-26, abbreviation not defined). The assay is classed as binding.
For assay [4], the system named is tubulin. Briefly: MA IC50 (Tables 12-26, abbreviation not defined). Format: biochemical.

What is called IC50 is the concentration that gives 50% inhibition.

Where two headings read alike, the source gives them in different places.

Consider `COc1ccc(/C(C)=C\c2cc(OC)c(OC)c(OC)c2)cc1O` [Compound 20, Z-1-(3′,4′,5′-trimethoxyphenyl)-2-(3″-hydroxy-4″-methoxyphenyl)propene], for which the IC50 in assay [1] (Homo sapiens, K562) was 1800 nM; in assay [2] (Mus musculus, P388, MTT), 7 µM.

As for `COc1cc(/C=C/c2ccc(C)c(C)c2)cc(OC)c1OC` [Compound 104], the half-maximal inhibitory concentration (IC50) was > 25 µM with tubulin [3], > 10 µM in the assay on tubulin [4], 35800 nM in assay [1] and 20 µM in assay [2] (MTT).

As to `Cc1ccc(/C=C/c2ccc(C)c([N+](=O)[O-])c2)cc1C` [Compound 152], the IC50 in the assay with tubulin [3] was > 25 µM; with tubulin [4] it was > 10 µM; in assay [1], > 50000 nM; in assay [2] (MTT), > 50 µM.

For `COc1cc(/C=C\c2ccc(C)c(C)c2)cc(OC)c1OC` [Compound 103], the IC50 is > 25 µM in the assay on tubulin [3]; 2 µM with tubulin [4]; 40 nM in assay [1] (Homo sapiens, K562); 0.1 µM in assay [2] (Mus musculus, P388, MTT).

As for `Cc1ccc(C=Cc2ccc(C)c(F)c2)cc1C` [Compound 149], the IC50 with tubulin [3] was > 25 µM; in the assay on tubulin [4], > 10 µM; in assay [1] (Homo sapiens, K562), 390 nM; in assay [2] (Mus musculus, P388, MTT) it was 7.2 µM.

For the compound `COc1ccc(C(C)=Cc2cc(OC)c(OC)c(OC)c2)cc1O` [Compound 200], the IC50 in the assay with tubulin [3] was > 25 µM; with tubulin [4], 9 µM; in assay [1] (Homo sapiens, K562), 2000 nM; in assay [2] (Mus musculus, P388, MTT), 7 µM.

As for `COc1ccc(/C=C/c2ccc(C)c(C)c2)cc1` [Compound 142], the IC50 was > 25 µM in the assay with tubulin [3], > 10 µM with tubulin [4], > 50000 nM in assay [1] and 20.5 µM in assay [2] (MTT).

As for `COc1ccc(C=Cc2ccc(C)c(C)c2)cc1Br` [Compound 143], the IC50 is > 25 µM with tubulin [3]; > 10 µM in the assay with tubulin [4]; 1150 nM in assay [1] (Homo sapiens, K562); 2.5 µM in assay [2] (Mus musculus, P388, MTT).

On to `COc1ccc(/C=C/c2ccc(C)c(C)c2)cc1Br` [Compound 144], for which the IC50 in the assay with tubulin [3] was > 25 µM; in the assay with tubulin [4], > 10 µM; in assay [1], > 50000 nM; in assay [2] (MTT) it was > 50 µM.

As to `COc1ccc(C=Cc2ccc(C)c(C)c2)cc1[N+](=O)[O-]` [Compound 139], the IC50 in the assay on tubulin [3] was > 25 µM; with tubulin [4], > 10 µM; in assay [1] (Homo sapiens, K562) it was 1800 nM; in assay [2] (Mus musculus, P388, MTT), 20 µM.

As for `COc1ccc(/C=C/c2ccc(C)c(C)c2)cc1F` [Compound 148], the IC50 is > 25 µM in the assay with tubulin [3], > 10 µM in the assay on tubulin [4], 2500 nM in assay [1] and 36 µM in assay [2] (MTT).

With `COc1ccc(/C=C/c2ccc(C)c(C)c2)cc1[N+](=O)[O-]` [Compound 140], the IC50 in the assay on tubulin [3] was > 25 µM; with tubulin [4], > 10 µM; in assay [1] it was 24000 nM; in assay [2] (MTT) it was > 50 µM.

Consider `COc1ccc(C=Cc2ccc(C)c(C)c2)cc1` [Compound 141], for which the IC50 in the assay with tubulin [3] is > 25 µM; in the assay with tubulin [4], > 10 µM; in assay [1] (Homo sapiens, K562), 1600 nM; in assay [2] (Mus musculus, P388, MTT) it was 4.9 µM.

`COc1cc(/C=C\c2cccc(O)c2)cc(OC)c1OC` [Compound 101]: the IC50 in the assay on tubulin [3] was > 25 µM; with tubulin [4], > 10 µM; in assay [1] (Homo sapiens, K562), 140 nM; in assay [2] (Mus musculus, P388, MTT), 0.3 µM.

Consider `Cc1ccc(/C=C/c2ccc(C)c(F)c2)cc1C` [Compound 150], for which the concentration for half-maximal inhibition (IC50) in the assay on tubulin [3] is > 25 µM; with tubulin [4] it was > 10 µM; in assay [1], > 50000 nM; in assay [2] (MTT), 40 µM.

As to `Cc1ccc(C=Cc2ccc(C)c(C)c2)cc1` [Compound 137], the IC50 with tubulin [3] was > 25 µM; in the assay on tubulin [4] it was > 10 µM; in assay [1] (Homo sapiens, K562), 3400 nM; in assay [2] (Mus musculus, P388, MTT), 2 µM.

For the compound `Cc1ccc(C=Cc2ccc(C)c([N+](=O)[O-])c2)cc1C` [Compound 151], the IC50 was > 25 µM in the assay on tubulin [3]; > 10 µM with tubulin [4]; 1500 nM in assay [1] (Homo sapiens, K562); 9.7 µM in assay [2] (Mus musculus, P388, MTT).

Values taken from patent US7220784B2, “Substituted stilbenes and their reactions” (priority 2000, dated 2007).
